Patent US20260265267A1, “NOVEL COMPOUNDS WITH MTORC2-INHIBITORY ACTIVITY AND USES THEREOF” (Aliad Biopharma, priority 2023, published 2026)

How the values were obtained:
[1] = test system: 5×FAD Alzheimer's disease model mice; experiment: Passive avoidance test in 5×FAD mice (long-term memory); type: in vivo
Procedure: (§1) In order to evaluate the efficacy of HN2210, HN2213, and HN2313 on Alzheimer's disease-related symptoms, specifically regarding 1) memory and cognitive impairment, 2) amyloid plaques, 3) neurofibrillary tangles (NFTs), and 4) brain inflammation, an in vivo efficacy assessment of HN2210, HN2213 and HN2313 was conducted using 5×FAD Alzheimer's disease model mice. The 5×FAD mice were purchased from Jackson Lab, USA (Cat #034840-JAX) and crossed once with C57bl6 mice to produce F1 heterozygous offspring (Het). The compound was administered via intraperitoneal injection to 6-month-old 5×FAD Het mice, followed by behavioral testing. The normal control mice, which were littermates of the 5×FAD Het mice, were aged to 6 months and received DMSO injection at the same volume.
Specifically, to mice trained to avoid bright light three times daily, an electric foot shock (1 mA, 300 g) was applied for 3 seconds in a dark room at the same time on the next day. After 24 hours, the mice were placed again in the same room, and the avoidance response by light, that is, the time taken to move from the bright room to the dark room was measured. At 24 hours after habituation training, the mice were placed back into the bright room, and the latency time for entering the dark room was recorded over a period of 720 seconds.

[2] = test system: 5×FAD Alzheimer's disease model mice; experiment: Morris water maze test in 5×FAD mice (spatial perceptive ability); type: in vivo; conditions: for Morris water maze time spent swimming in the target quadrant, % of the normal control level / Morris water maze time spent swimming in the target quadrant, increase compared to 5×FAD-DMSO mice: 14 days (FIG. 8c); for Morris water maze time spent in the target quadrant, % of the normal control level / Morris water maze time spent in the target quadrant, increase compared to 5×FAD-DMSO mice: 14 days (FIG. 6b)
Procedure: as §1
Specifically, a 50 cm deep water tank filled with water (25.0±1.0° C.) was divided into four equal quadrants, and a platform (12 cm diameter) was placed 3 mm below the water surface in the center of one quadrant. The training test consisted of a 1-minute free swimming practice without the platform foothold on the first day and a four days of training, during which the animal used environmental cues to locate the hidden platform foothold, with four trials per day. The following day, the platform was removed, and the time the experimental animal spent in the target quadrant was measured (probe trial). Videos were recorded and analyzed using the Ethovision video tracking system (Noldus Information Technology, Wageningen, Netherlands). The data included the time spent swimming in the target quadrant and the number of crossings over the virtual platform's previous position.

[3] = test system: LC3-II; experiment: LC3-II levels in primary cultured cerebral neurons; type: cell-based, SD mice; conditions: for effect on LC3-II: 500 nM or 100 nM, time course to 24 hours; for LC3-II (% control): 24 hours
Procedure: Specifically, primary neural cells were cultured from the cerebral cortex of E16 embryos of SD […] with a gestational age 16-day (Orient Bio). The extracted brain was separated into the left and right hemispheres, the meninges were removed, and the brains were treated with trypsin in Ca^2+/Mg^2+-free HBSS solution. […] The cells were seeded at a density of 19,000 cells/cm^2 onto 35 mm culture dishes coated with 50 μg/ml poly-D-Lysine (Sigma, P0899) and 1 μg/ml laminin (Invitrogen, 23017-015), and then maintained in neurobasal complete media supplemented with B27 (Gibco, 17504-044) in a 5% CO2 incubator.
Therefore, the evaluation of mTORC2 inhibitory activity in primary cultured cerebral cells was conducted using the same method as in Experimental Example 1, except that each compound was treated at concentrations of 500 nM or 100 nM for 24 hours. The time-dependent changes in Akt Ser473 phosphorylation, Akt Thr308 phosphorylation, and LC3-II levels were measured by Western blot analysis.

[4] = test system: activated microglia in the brain of 5×FAD mice; experiment: Anti-inflammatory effect in the brain of 5×FAD mice (IBA-1 antibody staining); type: in vivo; conditions: 5 mg/kg, 14 days
Procedure: as §1
In order to assess the anti-inflammatory effect of HN2210, HN2213, and HN2313 compounds in the brains of Alzheimer's disease model mice, the following test was conducted using 5×FAD-DMSO mice without compound treatment, 5×FAD mice treated with HN2210, HN2213, or HN2313 compounds, and normal mice as controls. Specifically, brain inflammation is mediated by the activation of microglia, which can be stained using the IBA-1 antibody. Therefore, inflammation in the hippocampus of 5×FAD mouse can be assessed using immunostaining with the IBA-1 antibody. Brain slices were double-stained with the IBA-1 antibody and DAPI to label nuclei, and the dentate gyrus region of the hippocampus was observed under a confocal scanning microscope.

[5] = test system: amyloid plaques in the brain of 5×FAD mouse; experiment: Amyloid plaque removal in the brain of 5×FAD mice (6E10 antibody, thioflavin-S staining); type: in vivo; conditions: 5 mg/kg, 14 days
Procedure: as §1
In order to assess the amyloid plaque removal effect of HN2210, HN2213, and HN2313 compounds in the brains of Alzheimer's disease model mice, the following test was conducted using 5×FAD-DMSO mice without compound treatment, 5×FAD mice treated with HN2210, HN2213, or HN2313 compounds, and normal mice as controls.
Specifically, brain slices sectioned in the coronal plane were selected for every fifth slice from the anterior to the posterior parts of the brain and stained with the 6E10 antibody or thioflavin-S. The 6E10 antibody stains both […] and amyloid plaques, while thioflavin-S specifically stains amyloid plaques. DNA was co-stained with DAPI. The dentate gyrus (DG) region of the hippocampus, where amyloid plaques tend to accumulate heavily, was examined using a confocal scanning microscope, and the images are shown in FIGS. 9a to 9c.

[6] = 5 mg/kg, 14 days / 2 weeks (FIG. 7)

O=C1c2cc(F)c(N3CCOCC3)cc2COc2cc3c(cc21)OCO3 [HN2210, 8-(morpholino)-9-fluoro[2]benzoxepino[3,4-f]-1,3-benzodioxol-11(6H)-one]
passive avoidance latency time, % of the normal control level ([1]; 0.2 mg/kg, 14 days (FIG. 8d)): approximately 56% | passive avoidance latency time, increase compared to 5×FAD-DMSO mice ([1]; 0.2 mg/kg, 14 days (FIG. 8d)): 2.97 fold | passive avoidance latency time, % of the normal control level ([1]; 1 mg/kg, 14 days (FIG. 8d)): ~83% | passive avoidance latency time, increase compared to 5×FAD-DMSO mice ([1]; 1 mg/kg, 14 days (FIG. 8d)): 4.39 fold | passive avoidance latency time, increase compared to 5×FAD-DMSO mice ([1]; 5 mg/kg, 14 days (FIG. 7)): 5.16 fold | passive avoidance latency time, % of the normal control level ([1]; 5 mg/kg, 14 days (FIG. 8d)): ~97% | passive avoidance latency time, increase compared to 5×FAD-DMSO mice ([1]; 5 mg/kg, 14 days (FIG. 8d)): 5.16 fold | passive avoidance latency time, % of the normal control level [1, 6]: approximately 84% | Morris water maze number of target crossings, % of the normal control level ([2]; 0.2 mg/kg, 14 days (FIG. 8b)): approximately 30% | Morris water maze number of target crossings, increase compared to 5×FAD-DMSO mice ([2]; 0.2 mg/kg, 14 days (FIG. 8b)): 2.02 fold | Morris water maze time spent swimming in the target quadrant, % of the normal control level ([2]; 0.2 mg/kg): approximately 87% | Morris water maze time spent swimming in the target quadrant, increase compared to 5×FAD-DMSO mice ([2]; 0.2 mg/kg): 2.14 fold | Morris water maze number of target crossings, % of the normal control level ([2]; 1 mg/kg, 14 days (FIG. 8b)): ~63% | Morris water maze number of target crossings, increase compared to 5×FAD-DMSO mice ([2]; 1 mg/kg, 14 days (FIG. 8b)): 4.27 fold | Morris water maze time spent swimming in the target quadrant, % of the normal control level ([2]; 1 mg/kg): ~85% | Morris water maze time spent swimming in the target quadrant, increase compared to 5×FAD-DMSO mice ([2]; 1 mg/kg): 2.07 fold | Morris water maze number of target crossings, % of the normal control level ([2]; 5 mg/kg, 14 days (FIG. 6a)): approximately 59% | Morris water maze number of target crossings, increase compared to 5×FAD-DMSO mice ([2]; 5 mg/kg, 14 days (FIG. 6a)): 3.96 fold | Morris water maze time spent in the target quadrant, % of the normal control level ([2]; 5 mg/kg): approximately 96% | Morris water maze time spent in the target quadrant, increase compared to 5×FAD-DMSO mice ([2]; 5 mg/kg): 1.74 fold | Morris water maze number of target crossings, % of the normal control level ([2]; 5 mg/kg, 14 days (FIG. 8b)): ~86% | Morris water maze number of target crossings, increase compared to 5×FAD-DMSO mice ([2]; 5 mg/kg, 14 days (FIG. 8b)): 5.84 fold | Morris water maze time spent swimming in the target quadrant, % of the normal control level ([2]; 5 mg/kg): ~96% | Morris water maze time spent swimming in the target quadrant, increase compared to 5×FAD-DMSO mice ([2]; 5 mg/kg): 2.34 fold | effect on LC3-II [3]: markedly increased | LC3-II (% control) ([3]; 500 nM): 348 % control | reduction of IBA-1 antibody signals in the dentate gyrus compared to the 5×FAD-DMSO group [4]: 50% | reduction of 6E10 signals in the dentate gyrus compared to the 5×FAD-DMSO group [5]: 53% | reduction of thioflavin-S signals in the dentate gyrus compared to the 5×FAD-DMSO group [5]: 38%

O=C1c2cc(F)c(NC3CCCC3)cc2COc2cc3c(cc21)OCO3 [HN2313, 8-(cyclopentylamino)-9-fluoro-[1,3]dioxolo[4′,5′:4,5]benzo[1,2-b]benzo[e]oxepin-11(6H)-one]
passive avoidance latency time, increase compared to 5×FAD-DMSO mice ([1]; 5 mg/kg, 14 days (FIG. 7)): 5.86 fold | passive avoidance latency time, % of the normal control level [1, 6]: ~96% | Morris water maze number of target crossings, % of the normal control level ([2]; 5 mg/kg, 14 days (FIG. 6a)): ~82% | Morris water maze number of target crossings, increase compared to 5×FAD-DMSO mice ([2]; 5 mg/kg, 14 days (FIG. 6a)): 5.5 fold | Morris water maze time spent in the target quadrant, % of the normal control level ([2]; 5 mg/kg): ~84% | Morris water maze time spent in the target quadrant, increase compared to 5×FAD-DMSO mice ([2]; 5 mg/kg): 1.53 fold | LC3-II (% control) ([3]; 100 nM): 86 % control | effect on LC3-II [3]: not affected | reduction of IBA-1 antibody signals in the dentate gyrus compared to the 5×FAD-DMSO group [4]: 50% | reduction of 6E10 signals in the dentate gyrus compared to the 5×FAD-DMSO group [5]: 38% | reduction of thioflavin-S signals in the dentate gyrus compared to the 5×FAD-DMSO group [5]: 35%

O=C1c2cc(F)c(NCc3ccccc3)cc2COc2cc3c(cc21)OCO3 [HN2213, 8-(benzylamino)-9-fluoro[2]benzoxepino[3,4-f]-1,3-benzodioxol-11(6H)-one]
passive avoidance latency time, increase compared to 5×FAD-DMSO mice ([1]; 5 mg/kg, 14 days (FIG. 7)): 4.52 fold | passive avoidance latency time, % of the normal control level [1, 6]: ~74% | Morris water maze number of target crossings, % of the normal control level ([2]; 5 mg/kg, 14 days (FIG. 6a)): ~60% | Morris water maze number of target crossings, increase compared to 5×FAD-DMSO mice ([2]; 5 mg/kg, 14 days (FIG. 6a)): 4 fold | Morris water maze time spent in the target quadrant, % of the normal control level ([2]; 5 mg/kg): ~105% | Morris water maze time spent in the target quadrant, increase compared to 5×FAD-DMSO mice ([2]; 5 mg/kg): 1.91 fold | effect on LC3-II [3]: significantly increased | LC3-II (% control) ([3]; 500 nM): 336 % control | reduction of IBA-1 antibody signals in the dentate gyrus compared to the 5×FAD-DMSO group [4]: 24% | reduction of 6E10 signals in the dentate gyrus compared to the 5×FAD-DMSO group [5]: 29% | reduction of thioflavin-S signals in the dentate gyrus compared to the 5×FAD-DMSO group [5]: 28%
